In PubChem BioAssay (NCI):
Values joined by “and” are separate entries in the source; they are usually repeats but may differ in a detail not shown here. Equal values may be shown once.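 96-well plates; 48 h exposure; 5 concentrations. Endpoints by linear interpolation between flanking doses. Not reached: highest tested concentration assigned. GI50 is the concentration that inhibits growth by half. TGI is the concentration that stops growth completely.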

Columns and labels:
Assay in all cases: NCI anticancer screen, dose series, 48 h
LOX IMVI melanoma = test system: LOX IMVI melanoma
OVCAR-8 ovarian = test system: OVCAR-8 ovarian
SR leukemia = test system: SR leukemia
COLO 205 colon = test system: COLO 205 colon
NCI-H522 lung = test system: NCI-H522 lung
SNB-75 CNS = test system: SNB-75 CNS
OVCAR-4 ovarian = test system: OVCAR-4 ovarian
SF-268 CNS = test system: SF-268 CNS
HCT-15 colon = test system: HCT-15 colon
HCC-2998 colon = test system: HCC-2998 colon

| SMILES | GI50 (LOX IMVI melanoma) | TGI (LOX IMVI melanoma) | GI50 (OVCAR-8 ovarian) | GI50 (SR leukemia) | TGI (SR leukemia) | GI50 (COLO 205 colon) | TGI (COLO 205 colon) | GI50 (NCI-H522 lung) | TGI (SNB-75 CNS) | GI50 (OVCAR-4 ovarian) | TGI (OVCAR-4 ovarian) | GI50 (SF-268 CNS) | TGI (SF-268 CNS) | GI50 (HCT-15 colon) | TGI (HCT-15 colon) | TGI (HCC-2998 colon) | TGI (OVCAR-8 ovarian) | TGI (NCI-H522 lung) | GI50 (SNB-75 CNS) | GI50 (HCC-2998 colon) |
| --- | --- | --- | --- | --- | --- | --- | --- | --- | --- | --- | --- | --- | --- | --- | --- | --- | --- | --- | --- | --- |
| COc1ccc(/C=C\c2cc(OC)c(OC)c(OC)c2)cc1OC | 0.0829 µM | 40.4 µM and 17.7 µM | 0.275 µM | 0.0204 µM | 0.277 µM and 0.0612 µM | 0.11 µM | 0.171 µM and 0.662 µM | 0.154 µM | 40.4 µM | 11.6 µM | 40.4 µM and > 100 µM | 0.214 µM | 40.4 µM and > 100 µM | 0.0595 µM | 40.4 µM and > 100 µM | 0.579 µM and 0.372 µM |  |  |  |  |
| Cc1ccc(S(=O)(=O)Nc2cccc3[nH]c(C(F)(F)F)nc23)cc1 | 0.829 µM | > 100 µM | 1.22 µM | 0.383 µM | 22 µM | 0.387 µM | 10.7 µM | 0.15 µM | 2.45 µM | 1.54 µM | 80.9 µM | 1.87 µM | 54.6 µM | 0.408 µM | > 100 µM | 40.3 µM | > 47.8 µM | 0.696 µM | 0.314 µM | 2.89 µM |
| C=C1c2[nH]c3c([N+](=O)[O-])c(OC)ccc3c2CCN1C(C)=O |  | > 100 µM |  |  | > 100 µM |  | > 100 µM |  | 42.5 µM |  | > 100 µM |  | > 100 µM |  | > 100 µM | > 100 µM | > 100 µM | > 100 µM |  |  |
| O=CC1CCCc2ccccc21 (configuration not stated) |  | > 62.4 µM |  |  | > 100 µM |  | > 61.4 µM |  | > 100 µM |  | > 100 µM |  | > 31.6 µM |  | > 91.6 µM | > 100 µM | > 100 µM | > 100 µM |  |  |
| Nc1[nH]nc2nc(-c3cccs3)cc(C(F)(F)F)c12 | > 25 µM | > 25 µM | > 25 µM | > 13.7 µM | > 25 µM | > 25 µM | > 25 µM | > 13.9 µM | > 25 µM | > 25 µM | > 25 µM | > 25 µM | > 25 µM | > 25 µM | > 25 µM | > 25 µM | > 25 µM | > 25 µM | > 25 µM | > 25 µM |
| COc1cccc(-n2ncc3c(N/N=C/c4ccncc4)ncnc32)c1 | 1.01 µM | > 25 µM | 4.88 µM | 2.12 µM | > 25 µM | 11.5 µM | > 25 µM | > 14.5 µM | > 25 µM | > 25 µM | > 25 µM | > 25 µM | > 25 µM | 3.57 µM | > 25 µM | > 25 µM | > 25 µM | > 25 µM | 2.48 µM | > 25 µM |
| Cc1ccc(C)c(NC(=O)CC/C(=N\NC(=O)c2c(O)ccc3ccccc23)C(C)C(=O)c2ccc(O)cc2)c1 (configuration not stated) |  | 39.6 µM |  |  | 90.3 µM |  | 51.3 µM |  | > 100 µM |  | > 100 µM |  | > 100 µM |  | > 100 µM | > 100 µM | 75.9 µM | 42.6 µM |  |  |
| COc1c(Cl)cc(NC(=S)C#N)cc1Cl |  | 38.8 µM |  |  | > 92.2 µM |  | 32.2 µM |  | 67.4 µM |  | 97.9 µM |  | > 89.9 µM |  | 46.8 µM | 32.6 µM | > 69.3 µM | 52.8 µM |  |  |
| Cc1ccc(Nc2nc(C)c(C(/C=C/c3ccc(/C=C/C(=N/NC(=O)C[n+]4ccccc4)c4sc(Nc5ccc(C)cc5[N+](=O)[O-])nc4C)cc3)=N\NC(=O)C[n+]3ccccc3)s2)c([N+](=O)[O-])c1 |  | > 100 µM |  |  | > 100 µM |  | > 100 µM |  | > 100 µM |  | > 100 µM |  | > 100 µM |  | > 100 µM | > 100 µM | > 100 µM | > 100 µM |  |  |
| CC1=C2C(=CC(C)(C)C2O)C(=O)C(C)(O)C12CC2 (configuration not stated) |  | 0.025 µM |  |  | 0.128 µM | 0.0191 µM | 0.0621 µM |  | 0.0377 µM |  | 0.0209 µM |  | 0.0667 µM |  | 0.151 µM | 0.0268 µM | 0.0499 µM | 0.017 µM |  |  |
| Cc1cccc(C(C)C)c1NC(=O)CC1C(=O)Nc2ccccc2S1(=O)=O (configuration not stated) |  | > 51.8 µM |  |  | 4.32 µM |  | > 100 µM |  | > 69 µM |  | 29 µM |  | 29.5 µM |  | 19.5 µM | > 56.2 µM | > 59 µM | 31.5 µM |  |  |
| CC(C)(O)CC(=O)NCCn1ccc2ncnc(Nc3ccc(Oc4cccc(C(F)(F)F)c4)c(Cl)c3)c21 | 2.34 µM | > 10 µM | 3.65 µM | 2.14 µM | > 10 µM | 3.5 µM | > 10 µM | 0.535 µM | > 10 µM | 5.22 µM | > 10 µM | 3.5 µM | > 10 µM | 2.5 µM | > 10 µM | > 10 µM | > 10 µM | > 10 µM | 4.72 µM | 3.85 µM |
| COc1ccc(OC)c(NC(=O)CCC/C(CC(=O)c2ccc(O)c(OC)c2)=N\Nc2ccc([N+](=O)[O-])cc2)c1 |  | > 100 µM |  |  | > 100 µM |  | > 100 µM |  | 79 µM |  | > 100 µM |  | > 100 µM |  | > 100 µM | > 100 µM | > 100 µM | > 100 µM |  |  |
